Experimental data reported in US12129278B2, “High-affinity peptide for tumor necrosis factor alpha and application thereof” (priority 2017, dated 2024).
Where no end group is shown, it is not given here.

Columns and labels:
TNF-α protein = TNF-α protein (Homo sapiens, UniProt P01375); test: ELISA affinity assay of FITC-labeled peptide to coated TNF-α; type: binding; conditions: FIG. 1 / FIG. 2
Description: (§1) A 96-well ELISA plate was coated with 2 μg/ml TNF-α solution at 4° C. overnight. Different concentrations of peptide 632 labeled with FITC were added to each well and incubated for 2 h. After incubation, HRP-conjugated anti-FITC monoclonal antibody was added, incubated for 1 h, and then ABTS coloring solution was added. After color development for 1 h, the OD value at 410 nm was measured using a microplate reader, and GraphPad Prism 5 was used for plotting and analysis.
as §1, with “TNF-α protein” for “TNF-α solution”, “overnight. After blocking with BSA, different” for “overnight. Different”

[1] = test system: p-xylene induced ear swelling in Kunming mice; test: p-xylene induced mouse ear swelling model of inflammation; type: in vivo; conditions: male Kunming mice, subcutaneous injection for 3 consecutive days, p-xylene on right auricle, 1 h, versus control group
Description: The experimental animals were divided into three groups: blank group, a non-related peptide control group and an antagonist peptide (peptide 632) group. Using mice as an example, male Kunming mice of 6 weeks old were injected subcutaneously at right abdomen for 3 consecutive days. After the last injection, mice of each group were smeared with p-xylene on both sides of the right auricle. 1 h after the treatment, mice were sacrificed, and the left and right ears of the mice were cut. An ear swelling puncher was used to cut down ears to obtain ear pieces. Swelling degree of mouse ear were obtained by subtracting the weighs of left ear piece from the weighs of right ear piece.
The experimental animals were divided into three groups: blank group, a non-related peptide control group and an antagonist peptide (peptide 632) group. Male Kunming mice of 6 weeks old were injected subcutaneously with peptides at right abdomen for 3 consecutive days. 30 min after the last injection, mice of each group were smeared with p-xylene (0.03 ml/per mouse) on both sides of the right auricle to induce inflammation, and the left auricle was served as normal control. 1 h after the inflammation, animals were sacrificed, and the ears of mice were completely cut and marked to distinguish the left and right ears of the same mouse. […] The ear pieces were weighed together with papers, and the results were recorded. […]

TNF-α protein, sequence (P01375 77-233 limits assumed, species assumed): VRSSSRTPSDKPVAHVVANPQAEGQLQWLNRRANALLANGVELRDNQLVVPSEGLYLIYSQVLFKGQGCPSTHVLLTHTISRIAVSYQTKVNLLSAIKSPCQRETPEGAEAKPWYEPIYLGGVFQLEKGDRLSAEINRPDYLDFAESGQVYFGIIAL

Substance	binding affinity for TNF-α protein (in words) (TNF-α protein)	swelling degree of mouse ear [1]	swelling degree of mouse ear ([1]; listed as antagonist peptide)
KASGSPSGFWPS [peptide 636]	high binding affinity	–	–
HYIDFRW [peptide 632, HYIDFRW]	high binding affinity	significantly lower than those of the control group	significantly inhibit the swelling of the mouse ear
